# Assay results as given in patent publication US20100145469A1, “BIOCERAMIC IMPLANTS HAVING BIOACTIVE SUBSTANCE” (priority 2007, published 2010).
# Entries after “also recorded” stand apart in the source; their conditions may differ.
# System: angiogenesis
# Experiment: Peritoneal implantation of Y-pore bioceramic implants in mice for 15 days, wound tissue and angiogenesis patterns
# Conditions: for tissue response in pores: mice
# [1] = DCPD implant treated with VEGF at the blind end of the closed pore
# Description: In order to produce model implants for the investigation of spatially localized release of both organic (VEGF), a Y shaped hemi-cylindrical pore channel was designed in the x-y plane of DCPD cuboids with dimensions 8 mm×8 mm×3 mm. The bioceramic endoprosthesis was made in two mirror image halves 50, 52 that keyed into one another to form a Y shaped pore 51a, 51b closed at one of the branched ends (see FIGS. 2A-2C). […] In the experiments, mouse VEGF solution was deposited at the end of the closed pore.
# Wound tissue and angiogenesis patterns were examined for the implanted bioceramic endoprosthesis after peritoneal implantation of the bioceramic endoprosthesis in mice for 15 days.
# For experimental analysis, VEGF-impregnated bioceramic materials were prepared by passive adsorption of 200 ng or 2 μg final amount of mouse VEGF (R&D, Cedarlane Laboratories Ltd., Canada) diluted in a 5 μl volume of Hank's balanced salt solution (HBSS). Adsorption of VEGF was performed on each half of the bioceramic endoprosthesis (see FIGS. 2A-2D) at the closed end (3) of the Y-shape pore. Specimens were air-dried under a sterile laminar flow hood. Prior to VEGF impregnation, the bioceramic materials were sterilized by soaking in 70% ethanol, followed by a HEPES-NaCl buffered solution rinse, HBSS (×3), and then air-dried. Control material specimens were also impregnated with HBSS without VEGF. Higher concentrations of VEGF (400 μg/ml) were also investigated.
substance,measurement,setting,value
vascular endothelial growth factor [VEGF],"microvessel formation (microscopic observation, FIG. 3A)",[1],microvessel formation in the tissue only in the closed pore ends
same,"tissue in-growth (photographs, FIG. 3A)",[1],well formed vascular tissue extended from the main pore opening to closed pore end
same,tissue response in pores,"DCPD implant, 200 ng VEGF deposited in closed pore ends, 15 days",vascular tissue throughout the pore channels; also recorded: Vascularised tissue was found inside the main open and closed pore channels
same,tissue response in pores,"DCPD implant, 2 μg VEGF deposited in pore ends, 15 days",vascular tissue throughout the pore channels
same,angiogenic effect compared with untreated DCPD control (quantitative measurements),"DCPD implant, 15 days",significantly enhanced angiogenic effect
same,tissue response in pores,"HA implants containing VEGF, 15 days",very little tissue ingrowth
same,vascularization pattern in pores,"HA implants, 2 μg VEGF deposited in closed pore ends, 15 days implantation",mostly filled with clear connective tissue
same,length of pore into which blood vessels extended,"factor deposited at closed pore end of model implant, peritoneal implantation 15 days, factor-free controls 2 mm",7 mm
